Measured values: article PMC7404270, “Biological Activities of Cyclic and Acyclic B-Type Laxaphycins in SH-SY5Y Human Neuroblastoma Cells” (Marine Drugs, 2020)

How the values were obtained:
[1] = system: SH-SY5Y human neuroblastoma cells; assay: MTT cell metabolic activity assay; format: cell-based; settings: 24 h, 0.001–10 µM
Experimental: (§1) SH-SY5Y human neuroblastoma cell line was obtained from American Type Culture Collection (ATCC), number CRL2266. Cells were cultured in Dulbecco´s modified Eagle´s medium: Nutrient Mix F-12 (DMEM/F-12) with 10% fetal bovine serum (FBS), 1% glutamax, 100 U/mL penicillin and 100 µg/mL streptomycin. Cells were maintained at 37 °C in a humidified atmosphere of 5% CO2 and 95% air and dissociated weekly using 0.05% trypsin/EDTA. All the reagents were obtained from Thermo Fischer Scientific.
The effect of laxaphycins on cell metabolic activity was evaluated by MTT (3-(4, 5-dimethyl thiazol-2-yl)-2, 5-diphenyl tetrazolium bromide) assay. SH-SY5Y cells were cultured in 96-well plates and treated with compounds at concentrations ranging from 0.001 to 10 µM for 24 h. Next, cells were rinsed three times and incubated for 1 h with MTT (500 µg/mL) dissolved in saline buffer. MTT excess was washed and cells were disaggregated with 5% sodium dodecyl sulfate. Absorbance of the colored formazan salt was measured at 595 nm in a spectrophotometer plate reader. Cell death control signal was subtracted from the other data.

[2] = system: SH-SY5Y human neuroblastoma cells; assay: LDH cytotoxicity assay (cell viability); format: cell-based; settings: 24 h, 0.001–10 µM
Experimental: as §1
Cell viability was assessed with the LDH test. Cells were seeded in 96-well plates and exposed to different compound concentrations (0.001–10 µM). Cells were incubated with compounds at 37 °C in humidified 5% CO2/95% air atmosphere for 24 h. Quillaja bark saponin was used as cellular death control. Then, cell medium was collected and LDH release was evaluated. Pierce^TM LDH-Cytotoxicity Assay Kit (Thermo Fisher Scientific) was used for LDH determination. Absorbance was measured at 490 nm to determine LDH release to the medium. Experiments were carried out in triplicate at least three independent times.

[3] = system: SH-SY5Y human neuroblastoma cells; assay: Mitochondrial membrane potential (TMRM dye); format: cell-based; settings: 24 h, 0.001–10 µM
Experimental: ∆Ψm was evaluated with TMRM assay as previously described. SH-SY5Y cells were seeded in 96-well plates at 5 × 10^4 cells per well. After 24 h, cells were treated with compounds (0.001–10 µM) for 24 h. Next, cells were washed twice with saline solution and incubated with 1 µM TMRM for 30 min. Then human neuroblastoma cells were solubilized with 50% DMSO–50% water. Fluorescence values were measured at 535 nm excitation, 590 nm emission with a plate reader. At least three independent replicates were performed in triplicate.

[4] = system: beclin 1; assay: Western blot, beclin 1 expression; format: cell-based, human; settings: SH-SY5Y cells, 24 h; Rap 0.1 µM
Experimental: (§2) SH-SY5Y cells were seeded in 12-well plates and treated with laxaphycins for 24 h. Next, cells were washed with PBS and lysis buffer (50mM Tris HCl, 150 mM NaCl, 1mM EDTA and 1% Triton x-100, supplemented with a complete phosphatase/protease inhibitor cocktail) was added to each well. Cells were scrapped, sonicated and centrifuged at 13,000 rpm at 4 °C for 20 min.
(§3) In both cases, the supernatant was collected as the cytosolic fraction and quantified with the Bradford method. Samples containing 15 µg were used for electrophoresis, resolved in 4–20% sodium dodecyl sulphate polyacrylamide gel (Biorad, Madrid, Spain). Proteins were transferred to PVDF membranes (Merck Millipore) with a Trans-Blot® semi-dry transfer cell (Biorad). Membrane blocking and antibody incubation was performed in Snap i.d. system (Merck Millipore). Protein bands were detected with Supersignal West Pico Luminiscent Substrate and Supersignal West Femto Maximum Sensitivity Substrate (Thermo Fisher Scientific). Chemiluminiscence was determined with Diversity GeneSnap system and software (Syngene). LC3 II/I was detected with the primary antibody anti-LC3 II/I (1:1000, Abcam), the primary antibody anti-pmTOR (Ser2448) (1:1000, Merck Millipore) was used to recognize phospho-mTOR and the total levels of the kinase were determined with anti-mTOR antibody (1:10000, Abcam), beclin-1 was detected with anti-beclin-1 primary antibody (1:1000, Merck Millipore), p62 was quantified with anti-p62 antibody (1:1000, Merck Millipore), anti-phospho-p70 S6 kinase (Thr389) (1:1000, Merck Millipore) was used to detect phospho- p70 and the total levels were quantified using anti-p70 S6 kinase antibody (1:1000, Merck Millipore), anti-phospho-AMPK (Thr172) (1:500, Merck Millipore) was used to recognize the phosphorylated state of the kinase, and the total expression of the enzyme was detected with anti-AMPK antibody (1:500, Merck Millipore). Protein levels were normalized using β-Actin (1:20,000, Millipore). Baf A1 (0.001 µM), Rap (0.1 µM) and Comp C (1 µM) were used as controls for autophagic flux measurements. All the experiments were performed at least three times in duplicate.

[5] = system: SH-SY5Y human neuroblastoma cells; assay: ATP levels (Luminescent ATP Detection Kit); format: cell-based; settings: 0.001–10 µM; for ATP levels at 6 h, in words: 6 h incubation; for ATP levels at 24 h, in words: 24 h incubation
Experimental: ATP levels were determined with the Luminescent ATP Detection Kit (Abcam), following manufacturer´s instructions. Briefly, human neuroblastoma cells were cultured in 96-well plates at 5 × 10^4 cells per well. Cells were treated with compounds as described above during 6 and 24 h, Then, cells were lysed and 50 µL of substrate solution were added to each well. The plate was incubated for 5 min, and the luminescence was measured in a plate reader. Rot at 1 µM was used as positive control.

[6] = system: SH-SY5Y human neuroblastoma cells; assay: Reactive oxygen species levels (carboxy-H2DCFDA); format: cell-based; settings: 24 h, 0.001–10 µM
Experimental: ROS production was assessed with the fluorescence dye carboxy-H2DCFDA (5-(and-6)-carboxy-2′,7′-dichlorodihydrofluorescein diacetate). SH-SY5Y cells were seeded in 96-well plates and allowed to grow for 24 h. Then, cells were treated with laxaphycins (0.001–10 µM) for 24 h and ROS levels were measured. SH-SY5Y cells were washed twice with serum-free medium and loaded with 20 µM carboxy-H2DCFDA. Next, the plate was incubated for 1 h at 37 °C. After this time, phosphate buffered saline (PBS) was added to each well during 30 min. The fluorescence was read at 495 nm excitation and 527 nm emission. Experiments were carried out at least three times.

[7] = system: AMPK; assay: Western blot, AMPK activation (phosphorylated/total); format: cell-based, human; settings: SH-SY5Y cells, 24 h; Comp C 1 µM
Experimental: as §2
(§4) In both cases, the supernatant was collected as the cytosolic fraction and quantified with the Bradford method. Samples containing 15 µg were used for electrophoresis, resolved in 4–20% sodium dodecyl sulphate polyacrylamide gel (Biorad, Madrid, Spain). Proteins were transferred to PVDF membranes (Merck Millipore) with a Trans-Blot® semi-dry transfer cell (Biorad). Membrane blocking and antibody incubation was performed in Snap i.d. system (Merck Millipore). Protein bands were detected with Supersignal West Pico Luminiscent Substrate and Supersignal West Femto Maximum Sensitivity Substrate (Thermo Fisher Scientific). Chemiluminiscence was determined with Diversity GeneSnap system and software (Syngene). […]

[8] = system: LC3; assay: Western blot, LC3II/I ratio; format: cell-based, human; settings: SH-SY5Y cells, 24 h; Baf A1 0.001 µM, Rap 0.1 µM
Experimental: as §2, §4

[9] = system: mTOR; assay: Western blot, mTOR activation (phosphorylated/total); format: cell-based, human; settings: SH-SY5Y cells, 24 h; Rap 0.1 µM
Experimental: as §2
as §3, with “All the experiments were performed at least three times in duplicate.” left out

[10] = system: p70 S6 kinase; assay: Western blot, p70 S6 kinase activation (phosphorylated/total); format: cell-based, human; settings: SH-SY5Y cells, 24 h; one range given for the three compounds together
Experimental: as §2
as §3, with “All the experiments were performed at least three times in duplicate.” left out

[11] = system: SH-SY5Y human neuroblastoma cells; assay: Annexin V-FITC / propidium iodide flow cytometry; format: cell-based; settings: 24 h, 1 at 0.3 µM, 2 at 0.15 µM, STS at 0.01 µM, percentage of total cells, mean ± SEM of three experiments
Experimental: The Annexin V-FITC Apoptosis Detection Kit was used to determine the cell death produced by compounds as previously described. SH-SY5Y cells were seeded in 12-well plates at 1 × 10^6 per well and incubated for 24 h with laxaphycins. Then, cells were washed with PBS and resuspended in Annexin binding buffer containing Annexin V-FITC and PI. Cells were incubated for 15 min at room temperature, resuspended in PBS and filtered. The fluorescence was determined by flow cytometry using the ImageStreamMKII (Amnis Corporation, Luminex Corp, Austin, TX, USA). 10,000 events were analyzed with IDEAS Application 6.0 software (Amnis Corporation, Luminex Corp, Austin, TX, USA). STS (Sigma Aldrich) at 0.01 µM was used as control in this assay.

[12] = system: caspase 3; assay: Caspase 3 activity in cell lysates (EnzCheck kit); format: cell-based, human; settings: SH-SY5Y cells, 24 h; STS 0.01 µM; percentage of control cells, mean ± SEM
Experimental: The detection of caspase 3 activity was carried out with the EnzCheck® Caspase-3 Assay Kit. Neuroblastoma cells were cultured in 12-well plates at 1 × 10^6 cells per well and treated with compounds. After 24 h, cells were lysed and an aliquot was collected to quantify protein concentration by the Bradford method. Then, the assay was performed following manufacturer’s instructions. Briefly, 50 µL of each sample were mixed with equal volume of Z-DEVD-AMC substrate and incubated for 30 min at room temperature. Then, fluorescence at 342 nm excitation and 441 nm emission was measured. Caspase 3 activity data were corrected by protein concentration values. STS (0.01 µM) was used as positive control.

Compound: [des-(Ala^4-Hle^5)] acyclolaxaphycin B [compound 5]
- Cell metabolic activity (MTT), in words [1]: increased cell metabolic activity
- Cytotoxicity / cell viability (LDH test), in words [2]: did not show effects on cell survival
- Mitochondrial membrane potential (∆Ψm, TMRM), in words [3]: depolarized the mitochondria
- Beclin 1 expression, in words [4]: generated an increase in beclin1 expression
- ATP levels at 6 h, in words [5]: levels were reduced by 5 after a 6 h incubation
- ATP levels at 24 h, in words [5]: recovered at 24 h
- ROS levels (carboxy-H2DCFDA), in words [6]: reduced ROS levels at the highest concentrations

Compound: c1cc(-c2cnn3cc(-c4ccc(OCCN5CCCCC5)cc4)cnc23)ccn1 [Comp C, compound C, reference compound]
- AMPK activation (phospho/total), in words [7]: inhibited kinase activity

Compound: CO[C@H]1C[C@@H]2CC[C@@H](C)[C@@](O)(O2)C(=O)C(=O)N2CCCC[C@H]2C(=O)O[C@H]([C@H](C)C[C@@H]2CC[C@@H](O)[C@H](OC)C2)CC(=O)[C@H](C)/C=C(\C)[C@@H](O)[C@@H](OC)C(=O)[C@H](C)C[C@H](C)/C=C/C=C/C=C/1C [Rap, rapamycin, reference compound]
- LC3II/I ratio, in words [8]: increased LC3II/I ratio
- mTOR activation (phospho/total), in words [9]: reduced mTOR activation
- Beclin 1 expression, in words [4]: augmented its expression

Compound: acyclolaxaphycin B3 [compound 4]
- Cytotoxicity / cell viability (LDH test), in words [2]: did not display cytotoxicity at any of the concentrations tested
- Mitochondrial membrane potential (∆Ψm, TMRM), in words [3]: depolarizing the mitochondrial membrane at 10 µM
- p70 S6 phosphorylation [10]: 53.5%–78.6%
- Beclin 1 expression, in words [4]: generated an increase in beclin1 expression
- ATP levels at 6 h, in words [5]: diminishing ROS release and ATP levels at 6 h
- ROS levels (carboxy-H2DCFDA), in words [6]: diminishing ROS release

Compound: acyclolaxaphycin B [compound 3]
- Cell metabolic activity (MTT), in words [1]: significantly augmented cell metabolic activity at 0.1 and 1 µM
- Cytotoxicity / cell viability (LDH test), in words [2]: did not display cytotoxicity at any of the concentrations tested
- Mitochondrial membrane potential (∆Ψm, TMRM), in words [3]: produced a decrease in ∆Ψm
- Beclin 1 expression, in words [4]: generated an increase in beclin1 expression
- ATP levels at 6 h, in words [5]: reduction in ATP was observed at 6 h
- ATP levels at 24 h, in words [5]: recovered at 24 h, reaching levels of control cells
- ROS levels (carboxy-H2DCFDA), in words [6]: reduced ROS and ATP levels at the highest concentrations

Compound: CN[C@@H]1C[C@H]2O[C@@](C)([C@@H]1OC)n1c3ccccc3c3c4c(c5c6ccccc6n2c5c31)C(=O)NC4 [STS, staurosporine, reference compound]
- Apoptotic cells (early and late, Annexin V positive) [11]: 63.3% ± 3.2%
- Caspase 3 activity [12]: 157.8% ± 6%

Compound: CO/C1=C\C(C)=C\[C@@H](C)[C@@H](O)[C@@H](C)C/C(C)=C/C=C/[C@H](OC)[C@@H]([C@@H](C)[C@@H](O)[C@H](C)[C@@]2(O)C[C@@H](O)[C@H](C)[C@@H](C(C)C)O2)OC1=O [Baf A1, Bafilomycin A1]
- LC3II/I ratio, in words [8]: increased LC3II/I ratio

Compound: [des-(Ala^4-Hle^5)] acyclolaxaphycin B3 [compound 6]
- AMPK activation (phospho/total), in words [7]: the most active
- Cytotoxicity / cell viability (LDH test), in words [2]: did not show effects on cell survival
- p70 S6 phosphorylation [10]: 53.5%–78.6%
- Beclin 1 expression, in words [4]: generated an increase in beclin1 expression
- ATP levels at 6 h, in words [5]: reduced ATP content at 6 h
- ATP levels at 24 h, in words [5]: recovering it after 24 h
- ROS levels (carboxy-H2DCFDA), in words [6]: decreased ROS release
